Assay results as given in ChEMBL document CHEMBL1201862, “PubChem BioAssay data set” (2004).
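1) Cells in 96-well plates. 2) Compound, 48 h, 5 concentrations. 3) Linear interpolation between surrounding doses. 4) Unreached endpoint = highest concentration. Abbreviation: GI50, concentration required for 50% inhibition of growth.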 Activity calls are given as the source filed them. Cut-off read from the data, not from the text of the source: active = GI50 up to about 1.1 µM and inactive = higher. Where a SMILES comes first, the peptide text is derived from it. [ ]: non-standard residue; d: D form. The star is where a group is joined. NMeF = CN[CH](Cc1ccccc1)C(=O)O; NMeV = CN[CH](C(=O)O)C(C)C; Boc = CC(C)(C)OC(=O)*; OBn = c1ccc(CO*)cc1

Columns and labels:
Assay in all cases: NCI anticancer screen, dose series, 48 h
OVCAR-5 = test system: OVCAR-5
K562 = test system: K562
SNB-75 = test system: SNB-75
OVCAR-4 = test system: OVCAR-4
NCI-H522 = test system: NCI-H522
A498 = test system: A498
786-0 = test system: 786-0
SK-MEL-28 = test system: SK-MEL-28
SN12C = test system: SN12C
SK-OV-3 = test system: SK-OV-3
SK-MEL-2 = test system: SK-MEL-2
HCC 2998 = test system: HCC 2998
HL-60 = test system: HL-60
HCT-15 = test system: HCT-15
KM12 = test system: KM12
HOP-62 = test system: HOP-62

SMILES | GI50 (OVCAR-5) | GI50 (K562) | GI50 (SNB-75) | GI50 (OVCAR-4) | GI50 (NCI-H522) | GI50 (A498) | GI50 (786-0) | GI50 (SK-MEL-28) | GI50 (SN12C) | GI50 (SK-OV-3) | GI50 (SK-MEL-2) | GI50 (HCC 2998) | GI50 (HL-60) | GI50 (HCT-15) [µM] | GI50 (KM12) | GI50 (HOP-62)
O=Cc1ccccc1COC(=O)c1cc(C(=O)OCc2ccccc2C=O)c(C(=O)OCc2ccccc2C=O)cc1C(=O)OCc1ccccc1C=O | > 100 µM (inactive) | 39.8 µM (inactive) | 21.5 µM (inactive) | > 100 µM (inactive) | > 100 µM (inactive) | > 100 µM (inactive) | 23.6 µM (inactive) | > 100 µM (inactive) | > 100 µM (inactive) | > 100 µM (inactive) | 82.2 µM (inactive) | > 100 µM (inactive) | 38.2 µM (inactive) | > 100 | > 100 µM (inactive) | 
Cc1c(C)c([N+](=O)[O-])c2c(c1N)C(=O)c1ccccc1C2=O | > 100 µM (inactive) | > 100 µM (inactive) | > 100 µM (inactive) |  | 61.7 µM (inactive) | > 100 µM (inactive) | 65.5 µM (inactive) | > 100 µM (inactive) | > 100 µM (inactive) | > 100 µM (inactive) | > 100 µM (inactive) | > 100 µM (inactive) | > 100 µM (inactive) | > 100 | > 100 µM (inactive) | > 100 µM (inactive)
C[C@H]1CC(=O)C2=CCCC3(SCCCS3)[C@@H]2[C@H]1CO | > 100 µM (inactive) | 47.1 µM (inactive) | > 100 µM (inactive) | > 100 µM (inactive) | > 100 µM (inactive) | > 100 µM (inactive) | > 100 µM (inactive) | > 100 µM (inactive) | > 100 µM (inactive) | > 100 µM (inactive) | > 100 µM (inactive) | > 100 µM (inactive) | 27.1 µM (inactive) |  | > 100 µM (inactive) | > 100 µM (inactive)
CC(=O)O[C@]12CCCC1C1(O)C(O)CCCC12 (stereo partly specified) |  | > 100 µM (inactive) | > 100 µM (inactive) | > 100 µM (inactive) | > 100 µM (inactive) |  | > 100 µM (inactive) | > 100 µM (inactive) | > 100 µM (inactive) | > 100 µM (inactive) | > 100 µM (inactive) |  | > 100 µM (inactive) | > 100 | > 100 µM (inactive) | > 100 µM (inactive)
O=C1C2c3[nH]c4ccccc4c3C3CCCCC3C2C(=O)N1c1ccccc1 (stereo unspecified) | > 100 µM (inactive) | 63.8 µM (inactive) | 11.3 µM (inactive) | 45.1 µM (inactive) |  | 36.2 µM (inactive) | 34.2 µM (inactive) | > 100 µM (inactive) | > 100 µM (inactive) | 20.7 µM (inactive) |  | > 100 µM (inactive) | > 100 µM (inactive) | > 100 | > 100 µM (inactive) | 
Cc1nc(-c2cccnc2)sc1C(=O)/C=C/c1ccc(Cl)cc1Cl | > 100 µM (inactive) | 76.4 µM (inactive) | 92.9 µM (inactive) |  | 94.6 µM (inactive) | > 100 µM (inactive) | > 100 µM (inactive) | > 100 µM (inactive) | > 100 µM (inactive) | > 100 µM (inactive) | > 100 µM (inactive) | > 100 µM (inactive) | 51.3 µM (inactive) | > 100 | > 100 µM (inactive) | > 100 µM (inactive)
O=C(OC1CCC(=C2SCCCS2)[C@H]1C1SCCCS1)c1ccccc1 (stereo partly specified) |  | 75 µM (inactive) |  | 84.5 µM (inactive) |  | > 100 µM (inactive) | > 100 µM (inactive) |  | > 100 µM (inactive) | > 100 µM (inactive) | > 100 µM (inactive) | > 100 µM (inactive) | 52.7 µM (inactive) | > 100 | > 100 µM (inactive) | > 100 µM (inactive)
COC1=C2C[C@H](O)C(C)C[C@@]2(OC)OC1=O (stereo partly specified) |  | > 100 µM (inactive) | > 100 µM (inactive) | > 100 µM (inactive) | > 100 µM (inactive) | > 100 µM (inactive) | > 100 µM (inactive) | > 100 µM (inactive) | > 100 µM (inactive) | > 100 µM (inactive) | > 100 µM (inactive) | > 100 µM (inactive) | > 100 µM (inactive) | > 100 | > 100 µM (inactive) | > 100 µM (inactive)
O=c1ncccn1C1OC(CO)C(O)C1O (stereo unspecified) | > 100 µM (inactive) | > 100 µM (inactive) | > 100 µM (inactive) | > 100 µM (inactive) | > 100 µM (inactive) | > 100 µM (inactive) | > 100 µM (inactive) | > 100 µM (inactive) | > 100 µM (inactive) | > 100 µM (inactive) | > 100 µM (inactive) | > 100 µM (inactive) |  | > 100 | > 100 µM (inactive) | 
CC(C)C(NC(=O)OC(C)(C)C)C(=O)N(C)C(Cc1ccccc1)C(=O)N(C)C(C(=O)N(C)C(C(=O)OCc1ccccc1)C(C)C)C(C)C (stereo unspecified) (Boc-V[NMeF][NMeV][NMeV]-OBn; configuration not given here) |  | > 100 µM (inactive) |  |  | 16.7 µM (inactive) |  | > 100 µM (inactive) |  | > 100 µM (inactive) |  |  | 44.2 µM (inactive) | > 100 µM (inactive) | > 100 | > 100 µM (inactive) | > 100 µM (inactive)
